Results: patent US9115126B2, “1H-[1,2,3]triazolo[4,5-c]pyridine-4-carbonitrile derivatives” (Merck Sharp & Dohme B.V., priority 2010, dated 2015)
Counter-ions that a name gives are not always drawn. Like-named read-outs stand apart in the source and are kept apart here.

Columns and labels:
[1] = Rat oral bioavailability; settings: Sprague-Dawley, in vivo, SD rat, read-out: Bioavailability F
[2] = biological target: recombinant human Cathepsin S (Homo sapiens (Human), UniProt P25774); assay: Cathepsin S assay procedure (fluorogenic substrate Z-Val-Val-Arg-AMC); type: biochemical
Experimental: 25 μl of a 2 mg/l solution of activated recombinant human cathepsin S, in assay buffer, is then added to the well, yielding a final inhibitor concentration of 10 μM.
Enzyme activity is determined by measuring the fluorescence of the liberated aminomethylcoumarin at […] using 390 nm excitation, at 20 minutes. Percentage enzyme activity is calculated by comparison of this activity to that of a solution containing no inhibitor.

[3] = test system: Human B lymphoblastoid cells (Jiyoye); assay: Cell based Lip10 assay (lip10 accumulation, anti-CD74 ELISA); settings: 24 hours, relative to E64d/LHVS-treated cells, read-out: pEC50 (negative logarithm of the EC50 concentration), lip10 assay (converted)
Experimental: Human B lymphoblastoid cells (Jiyoye) were cultured in RPMI 1640 medium at a density of 500 000 cells/ml in 24-well plates. Cells were treated with a concentration range of compounds (0.001-10 μM) and vehicle alone (DMSO, 0.1% v/v). In order to generate positive control treatments separate wells were treated with 10 μM E64d & 0.1 μM LHVS. The cells were incubated at 37° C. in a humidified incubator containing 5% CO2. After 24 hours the plates were centrifuged at 150×g for five minutes and the media removed. Cells were lysed by adding 65 ul of ice-cold phosphate buffered saline (PBS) containing 1% (v/v) Triton X-100 and protease inhibitors and incubated on ice for 20 minutes. The samples were centrifuged at 18 000×g for 15 minutes at 4° C. and the resulting supernatants collected and stored at −80° C. until required. After measurement of protein concentration using a micro-BCA protein assay all samples were diluted to […] and 50 l of each sample were coated overnight at 4° C. onto wells of high protein-binding 96-well plates. The wells were washed once with PBS (200 l/well) and then incubated at room temperature for 2 hours with 10 μg/ml mouse anti-CD74 Pin.1 monoclonal antibody (50 l/well) in PBS containing 0.05% (v/v) Tween-20 (PBS-T) and 2% (w/v) BSA (PBS-T/BSA). Unbound antibody was then removed by washing three times with PBS-T and followed by the addition of rabbit anti-mouse IgG antibody conjugated to horseradish peroxidase. After washing five times with PBS-T 100 μl of tetramethylbenzidine substrate was added to each well and incubated for 10 minutes on a plate shaker. The reaction was stopped by the addition of 100 μl of 1M hydrochloric acid. Antibody binding was quantified by measuring the optical density (OD, 450 nm) using a Molecular Devices Spectramax Plus. The OD of vehicle-only treated cells was removed from all values and the data was expressed as a percentage of the OD generated from the mean E64d/LHVS-treated cells. The potency of compounds (EC50) was measured by calculating the concentration of inhibitor required to generate 50% inhibition relative to E64d/LHVS-treated cells.

[4] = pH5.5, fluorescence at 20 minutes, read-out: Cat S activity IC50
[5] = read-out: pIC50 (negative logarithm of the IC50 concentration) for inhibition of human cathepsin S (converted)

Sequence of recombinant human Cathepsin S (P25774 115-331): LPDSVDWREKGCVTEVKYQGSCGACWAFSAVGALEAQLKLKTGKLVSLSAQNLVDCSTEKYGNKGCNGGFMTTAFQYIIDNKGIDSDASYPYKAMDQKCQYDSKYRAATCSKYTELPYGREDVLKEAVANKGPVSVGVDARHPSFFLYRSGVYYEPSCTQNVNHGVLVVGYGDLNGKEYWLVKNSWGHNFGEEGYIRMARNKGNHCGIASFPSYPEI

IC50 [2, 5] [µM]	Compound	IC50 [2, 4] [µM]	further results
	CN(C)C(=O)CN1CCC(CCOc2ccc(-c3cc4c(ncn4C)c(C#N)n3)cc2C(F)(F)F)CC1.Cl [EP 09150709.5 - Example 14d, reference compound]	0.0083	bioavailability [1]: 9%
< 0.01	CN(C)C(=O)CN1CCC(CCOc2ccc(-c3cc4c(nnn4C)c(C#N)n3)cc2C(F)(F)F)CC1.Cl [Example 2a, 6-(4-(2-(1-(2-dimethylamino-2-oxoethyl)piperidin-4-yl)ethoxy)-3-(trifluoromethyl)-phenyl)-1-methyl-1H-[1,2,3]triazolo[4,5-c]pyridine-4-carbonitrile hydrochloride]	0.0015	EC50 [3]: < 0.1 µM; bioavailability [1]: 42%
< 0.01	Cn1nnc2c(C#N)nc(-c3ccc(OCCC4CCN(CC(C)(C)O)CC4)c(C(F)(F)F)c3)cc21 [Example 2d, 6-(4-(2-(1-(2-hydroxy-2-methylpropyl)piperidin-4-yl)ethoxy)-3-(trifluoromethyl)phenyl)-1-methyl-1H-[1,2,3]triazolo-[4,5-c]pyridine-4-carbonitrile hydrochloride]		EC50 [3]: < 0.1 µM
< 0.01	Cn1nnc2c(C#N)nc(-c3ccc(OCCC4CCN(Cc5ncco5)CC4)c(C(F)(F)F)c3)cc21 [Example 3a, 1-methyl-6-(4-(2-(1-(oxazol-2-ylmethyl)piperidin-4-yl)ethoxy)-3-(trifluoromethyl)phenyl)-1H-[1,2,3]triazolo[4,5-c]pyridine-4-carbonitrile]		EC50 [3]: < 0.1 µM
< 0.01	Cn1nnc2c(C#N)nc(-c3ccc(OCCCN4CCN(c5ccccn5)CC4)c(C(F)(F)F)c3)cc21 [Example 36w, 1-methyl-6-(4-(3-(4-(pyridin-2-yl)piperazin-1-yl)propoxy)-3-(trifluoromethyl)phenyl)-1H-[1,2,3]triazolo[4,5-c]pyridine-4-carbonitrile hydrochloride]		
< 0.01	CN(CCCOc1ccc(-c2cc3c(nnn3C)c(C#N)n2)cc1C(F)(F)F)CC(=O)N(C)C [Example 36x, 2-((3-(4-(4-cyano-1-methyl-1H-[1,2,3]triazolo[4,5-c]pyridin-6-yl)-2-(trifluoro-methyl)phenoxy)propyl)(methyl)amino)-N,N-dimethylacetamide hydrochloride]		
< 0.01	Cn1nnc2c(C#N)nc(-c3ccc(OCCN4CCN(CCO)CC4)c(C(F)(F)F)c3)cc21 [Example 37e, 6-(4-(2-(4-(2-hydroxyethyl)piperazin-1-yl)ethoxy)-3-(trifluoromethyl)phenyl)-1-methyl-1H-[1,2,3]triazolo[4,5-c]pyridine-4-carbonitrile]		
	CN(C)C(=O)CN1CCN(CCOc2ccc(-c3cc4c(nnn4C)c(C#N)n3)cc2C(F)(F)F)CC1 [Example 37g, 2-(4-(2-(4-(4-cyano-1-methyl-1H-[1,2,3]triazolo[4,5-c]pyridin-6-yl)-2-(trifluoromethyl)phenoxy)ethyl)piperazin-1-yl)-N,N-dimethylacetamide dihydrochloride]		EC50 [3]: < 0.1 µM
< 0.01	CN(CCOc1ccc(-c2cc3c(nnn3C)c(C#N)n2)cc1C(F)(F)F)CC(=O)N(C)C [Example 37m, 2-((2-(4-(4-cyano-1-methyl-1H-[1,2,3]triazolo[4,5-c]pyridin-6-yl)-2-(trifluoromethyl)phenoxy)ethyl)(methyl)amino)-N,N-dimethylacetamide]		
< 0.01	Cn1nnc2c(C#N)nc(-c3ccc(OCCN4CCS(=O)(=O)CC4)c(C(F)(F)F)c3)cc21 [Example 37p, 1-methyl-6-(4-(2-(4-S,S-dioxothiomorpholin-1-yl)ethoxy)-3-(trifluoromethyl)phenyl)-1H-[1,2,3]triazolo[4,5-c]pyridine-4-carbonitrile]		
< 0.01	Cn1nnc2c(C#N)nc(-c3ccc(OCCN4CCNC(C(F)(F)F)C4)c(C(F)(F)F)c3)cc21 (stereo not drawn) [Example 37q, 1-methyl-6-(3-(trifluoromethyl)-4-(2-(3-(trifluoromethyl)piperazin-1-yl)ethoxy)phenyl)-1H-[1,2,3]triazolo[4,5-c]pyridine-4-carbonitrile]		
< 0.01	Cn1nnc2c(C#N)nc(-c3ccc(OCCN4CCNC(=O)C4)c(C(F)(F)F)c3)cc21 [Example 37r, 1-methyl-6-(4-(2-(3-oxopiperazin-1-yl)ethoxy)-3-(trifluoromethyl)phenyl)-1H-[1,2,3]triazolo[4,5-c]pyridine-4-carbonitrile]		
< 0.01	COC(=O)[C@@H](O)CN1CCC(CCOc2ccc(-c3cc4c(nnn4C)c(C#N)n3)cc2C(F)(F)F)CC1 [Example 39, (S)-methyl 3-(4-(2-(4-(4-cyano-1-methyl-1H-[1,2,3]triazolo[4,5-c]pyridin-6-yl)-2-(trifluoromethyl)phenoxy)ethyl)piperidin-1-yl)-2-hydroxypropanoate]		
< 0.01	CC(C)c1noc(COc2ccc(-c3cc4c(nnn4C)c(C#N)n3)cc2C(F)(F)F)n1 [Example 43, 6-(4-((3-isopropyl-1,2,4-oxadiazol-5-yl)methoxy)-3-(trifluoromethyl)phenyl)-1-methyl-1H-[1,2,3]triazolo[4,5-c]pyridine-4-carbonitrile]		
	Cn1nnc2c(C#N)nc(-c3ccc(CCCO)c(C(F)(F)F)c3)cc21 [Example 44, 6-(4-(3-hydroxypropyl)-3-(trifluoromethyl)phenyl)-1-methyl-1H-[1,2,3]triazolo[4,5-c]pyridine-4-carbonitrile]	0.013	
	CN(C)CCCOc1ccc(-c2cc3c(ncn3C)c(C#N)n2)cc1C(F)(F)F [WO 2009/010491 - Example 2a, reference compound]	0.032	
	Cn1cnc2c(C#N)nc(-c3ccc(OCCC4CCNCC4)c(C(F)(F)F)c3)cc21 [WO 2009/010491, Example 14a, reference compound]	0.008	
	Cn1cnc2c(C#N)nc(-c3ccc(CCCO)c(C(F)(F)F)c3)cc21 [WO 2009/010491, Example 15, reference compound]	0.234	
